According to patent publication US20240207293A1, “COMPOSITION FOR IMPROVING INTESTINAL MICROBIAL POPULATION COMPRISING GALACTOSE” (Quorum Bio Co., Ltd., priority 2021, published 2024):

What was measured:
Type in all cases: in vivo, C57BL/6J mouse
Akkermansia = test: Metagenome analysis of feces in high-fat diet induced obesity model: proportion of Akkermansia; conditions: for Akkermansia Average (%): feces after 8 weeks
Description: (§1) A 5-week-old male C57BL/6J mouse prepared in Example 1.2 were used after a 2-week acclimatization process, and then adjustment of body weight for each group. From the time the mouse reached 7 weeks of age, obesity was induced with a high fat diet (HFD). The mice were fed ad libitum with a general feed or a high-fat diet feed for 16 weeks, and PBS and galactose were orally administered daily to each group. The input amount and the remaining amount of the feed were measured twice a week to calculate daily caloric intake, and the body weight was measured once a week at a designated time. For microbiome analysis, feces were collected as shown in FIG. 1 and analysis was requested to Macrogen Inc. Feces were collected after selecting five mice whose body weight was closest to the average. The number of animals in each group was set to 8. After 8 weeks of the experiment, metagenome analysis was performed by collecting feces from the 3rd group (HFD-PBS), the 5th group (HFD-Gal 100 mg/kg), and the 6th group (HFD-Gal 50 mg/kg). The results of the metagenomic analysis were obtained by requesting metagenome sequencing to Macrogen Co., Ltd. For the experimental results, significance was tested using the TTEST method, and when the P value was less than 0.05, that value was determined to be significant ((*)<0.05, (**)<0.01, (***)<0.001).

Lactobacillus = test: Metagenome analysis of feces in high-fat diet induced obesity model: proportion of Lactobacillus; conditions: for Lactobacillus Average (%): feces after 8 weeks
Description: as §1

Alistipes = test: Metagenome analysis of feces in high-fat diet induced obesity model: proportion of Alistipes; conditions: for Alistipes Average (%): feces after 8 weeks
Description: as §1

[1] = Measurement of body weight (weight gain) in mice on normal or high-fat diet; conditions: 16 weeks, oral daily, n=8
Description: A 5-week-old male C57BL/6J mouse prepared in Example 1.2 were used after a 2-week acclimatization process, and then adjustment of body weight for each group. From the time the mouse reached 7 weeks of age, obesity was induced with a high fat diet (HFD). The mice were fed ad libitum with a general feed or a high-fat diet feed for 16 weeks, and PBS and galactose were orally administered daily to each group. The input amount and the remaining amount of the feed were measured twice a week to calculate daily caloric intake, and the body weight was measured once a week at a designated time. During the experimental period (16 weeks) designed in Example 1.3, the body weight of the experimental animals were measured at a predetermined time every week before administration of galactose or PBS, and body weight change (weight gain) and survival rate were measured (allowed to euthanize if the body weight decreases to less than 20% of the initial body weight). The weight gain was calculated by setting the body weight (initial body weight) of the experimental animal at 7 weeks of age as 100% and then calculating the body weight measured at each time point as a relative value to the initial body weight.

[2] = Intraperitoneal glucose tolerance test
Description: The experimental animals were kept hungry (12-hour fasting) from 9:00 p.m. the day before the test to 9:00 a.m. the day of the test, and then a blood glucose test was performed. To keep a hungry condition, feed and straw litter were removed to induce fasting. A 10% (w/v) glucose (in PBS) solution sterilized by 0.2 μm filtration was prepared. After intraperitoneally administering 2 mg glucose/g, volume=body weight*20 (μl) for each individual, the mice were again put in the cage, and blood glucose levels were measured every 0, 30, 60, 90, and 120 minutes. The blood glucose tests were performed by collecting blood from the caudal vein. The intraperitoneal glucose tolerance test was performed 13 weeks after inducing obesity with a high-fat diet.

[3] = group 5: high fat diet, galactose 100 mg/kg oral daily
[4] = group 6: high fat diet, galactose 50 mg/kg oral daily
[5] = high fat diet, galactose-administered group vs PBS control

O=C[C@H](O)[C@@H](O)[C@@H](O)[C@H](O)CO [Galactose, galactose]
Akkermansia Average (%) (Akkermansia; [3]): 1.365% | Akkermansia Average (%) (Akkermansia; [4]): 0.135% | proportion of Akkermansia as compared with a control group (Akkermansia; [5]): increased | Lactobacillus Average (%) (Lactobacillus; [3]): 3.8375% | Lactobacillus Average (%) (Lactobacillus; [4]): 2.17% | proportion of Lactobacillus as compared with a control group (Lactobacillus; [5]): increased | Alistipes Average (%) (Alistipes; [3]): 1.0275% | Alistipes Average (%) (Alistipes; [4]): 1.9675% | proportion of Alistipes as compared with a control group (Alistipes; [5]): increased | weight gain vs PBS-administered group ([1]; general diet group): no significant difference | weight gain vs PBS-administered group ([1]; high-fat diet feed group): significantly reduced | blood sugar levels at 120 minutes ([2]; high-fat diet group, measured at 120 minutes after i.p. glucose): comparable to those in the normal diet group | blood glucose level vs control group (PBS-administered) ([2]; high-fat diet intake group (HD), 13 weeks after inducing obesity, 2 mg glucose/g i.p.): significantly decreased | blood glucose by galactose administration ([2]; normal diet intake group (ND), 2 mg glucose/g i.p., 12-hour fasting): decreased
